“Also recorded” adds a separate entry of the source. Where a SMILES comes first, the peptide text is derived from it. Bridges are numbered along the chain shown (N, C = ends). [ ]: non-standard residue; d: D form. dOrn = NCCC[C@@H](N)C(=O)O
Key:
E. coli = experiment: Antimicrobial activity, E. coli; format: cell-based, Escherichia coli
[1] = tested on: 70S ribosome (50S subunit); experiment: Cryo-EM of MKM-stalled ribosome complexes; format: binding, E. coli; settings: ermBL MKM-SRC, 50 μM MKM
Method: MKM-ribosome complexes were generated by in vitro translation reactions in the PURExpress In vitro Protein Synthesis Kit (NEB) as described by the manufacturer. Complex formation reactions were carried out on ermBL toeprint mRNA template (Supplementary Table 7) in a 75 μl of reaction in presence of 50 μM MKM. The reaction was incubated for 15 min at 37 °C. The reaction volume was then split: 69 μl were used for complex generation and 6 μl were further analyzed by toeprinting. Ribosome complexes were isolated by centrifugation in 900 μl of sucrose gradient buffer (containing 40% sucrose, 50 mM HEPES-KOH, pH 7.4, 100 mM KOAc, 25 mM Mg(OAc)2 and 6 mM 2-mercaptoethanol) for 3 h at 4 °C with 80,000 g in a Optima Max-XP Tabletop Ultracentrifuge with a TLA 120.2 rotor. […]
Cryo-EM grids were prepared by applying 3.5 μl of MKM-70S complexes onto freshly glow-discharged Quantifoil R3.5/1 grids (copper, 300 mesh, with an additional 3 nm carbon layer; Product: C3-C19nCu30–01). […]
Movies were captured at a nominal magnification of 105,000×, corresponding to a calibrated pixel size of 0.832 Å (0.416 Å in super-resolution mode, binned 2× via EPU). […] Each exposure lasted 1.95 seconds in nanoprobe mode, during which 35 frames were recorded at a dose rate of ~1.14 electrons per frame per Å^2, resulting in a total accumulated dose of approximately 40 electrons per Å^2 (~15 e^−/px/s over vacuum). […]

[2] = tested on: bacteria with resistance mechanisms to other translation-inhibiting antibiotics; settings: bacterial pathogens; unique site of action in the ribosome
[3] = tested on: multi-drug-resistant Enterobacteriaceae
[4] = tested on: K. pneumoniae ATCC 33495 and C1559; experiment: C. elegans – K. pneumoniae in vivo antibiotic activity assay (survival); set-up: species or system K. pneumoniae in Caenorhabditis elegans
Method: A C. elegans double mutant strain, AU37 (glp-4(bn2);sek-1(km4)), was used for this assay due to its enhanced pathogen infection sensitivity and temperature-sensitive sterility. The infection protocol was carried out as previously described, with slight modifications to accommodate our experimental conditions. Standard C. elegans media and protocols were used for the maintenance and growth of worms. To summarize, eggs were collected from gravid adult worms by bleaching and incubated on solid agar plates at 25 °C for 48 hours, until early adulthood. Worms were thoroughly washed with M9 buffer and transferred onto LB agar plates containing lawns of infective K. pneumoniae and incubated for another 24 hours. Worms were then washed from plates and resuspended in M9 to an approximate 2 worm per microlitre concentration. A survival assay was conducted in a 96-well plate with experimental wells containing 15 μl of worms, 80 μl S-basal (5.85 g NaCl, 1 g K2HPO4, 6 g KH2PO4, 1 ml cholesterol (5 mg/ml in ethanol), H2O to 1 litre. Sterilize by autoclaving), and 5 μl of test compound. Plates were sealed with a porous film and incubated at 25°C for a total of 7 days. The number of dead worms were counted every 24 hours to generate a Kaplan-Meier survival curve.

K. pneumoniae C1559 = experiment: Time-dependent killing assay, K. pneumoniae; format: cell-based, Klebsiella pneumoniae; settings: K. pneumoniae C1559, MHB, 5×MIC (80 μg/ml), 37°C, 0-24 h; mean of three biological replicates
Method: E. coli BW25113 and Klebsiella pneumoniae C1559 were grown overnight in 5 ml of cation-adjusted Mueller-Hinton Broth. The cultures were then inoculated into fresh medium to achieve an OD600 of 0.1, corresponding to a concentration of 10^8 CFU/ml. […] Samples were taken at 0 h, 3 h, 6 h, and 24 h post-incubation, plated on MHA plates, and incubated for 20–24 hours at 37°C. Colony counts were used to determine the log reduction in CFU/ml, comparing treated strains to untreated control samples.

[5] = highly resistant mutants of E. coli BW25113 selected by passaging

Q: For `C[C@@H](O)[C@@H]1NC(=O)[C@@H](CCCNC(=N)N)NC(=O)[C@@H](CCCNC(=N)N)NC(=O)[C@@H](CC(N)=O)NC(=O)[C@@H](NC(=O)[C@@H](Cc2ccccc2)NC(=O)[C@@H](CCCN)NC(=O)[C@H](N)CCCNC(=N)N)[C@@H](C)OC(=O)[C@H](Cc2c[nH]cn2)NC1=O` [MKM, manikomycin A] (H-[dR][dOrn][dF]T[dN][dR][dR]TH; ester 4-C), which antimicrobial activity (E. coli) is on record?
A: selective antimicrobial activity

Q: What about the second binding site [1] of the same compound?
A: at the back of the 50S subunit

Q: What about the primary binding site ([1]; 2.4 Å focused refinement on 50S) of the same compound?
A: located within the E site of the 50S subunit

Q: And the “increase in MIC” value (E. coli BW25113; deletion of genes encoding components of the transporter YejABEF)?
A: 2–8 fold

Q: And the MIC (E. coli BW25113; [5])?
A: 512 to 1024 µg/mL

Q: What about the “increase in MIC over parental strain” value (E. coli BW25113; [5]) of the same compound?
A: 16- to 32 fold

Q: What about the “sensitivity to resistance mechanisms against other translation inhibitors” value [2] of the same compound?
A: insensitive to resistance mechanisms

Q: And the “killing of multi-drug-resistant Enterobacteriaceae” value [3]?
A: can kill

Q: What about the “survival benefit in C. elegans (in words)” value ([4]; MKM 64 μg/ml or polymyxin B 25 μg/ml, 6 days, vs DMSO, Log-rank (Mantel–Cox) test) of the same compound?
A: significantly improved survival; also recorded: markedly improved survival

Q: And the “nematodes alive by day 6” value ([4]; MKM 64 μg/ml, both infection models (ATCC 33495 and C1559), DMSO ~10% (ATCC 33495), ~30% (C1559), n > 60 worms per group)?
A: 55–60%

Q: What about the time-kill effect (K. pneumoniae C1559) of the same compound?
A: bactericidal

— paper PMC12236907, “A Natural Depsipeptide Antibiotic that Targets the E site of the Bacterial Ribosome” (Research Square, 2025)
